Measured values: ChEMBL document CHEMBL1139641 (Bioorg Med Chem Lett, 2005)

Key:
[1] = biological target: GABA-A receptor; anion channel (Rattus norvegicus) (UniProt O09028+P15431+P18506+P18508+P19969+P20236+P23574+P23576+P28471+P28473+P30191+P62813+P63079+P63138+Q91ZM7+Q9ES14); assay: Percent displacement of [3H]GABA (1 mM) from Gamma-aminobutyric acid A receptor of rat cerebral cortex; assay type: tissue-based
[2] = biological target: GABA B receptor (Rattus norvegicus) (UniProt Q9Z0U4+O88871); assay: Percent displacement of [3H]GABA (1 mM) from Gamma-aminobutyric acid B receptor of rat cerebellum; assay type: tissue-based
[3] = biological target: Calcium/calmodulin-dependent protein kinase type II subunit alpha (Rattus norvegicus, UniProt P11275); assay: Displacement of [3H]NCS-382 (16 nM) from GHB receptor of rat cerebrocortical membranes; assay type: cell membranes, Membrane
Chain of Calcium/calmodulin-dependent protein kinase type II subunit alpha (P11275 whole entry): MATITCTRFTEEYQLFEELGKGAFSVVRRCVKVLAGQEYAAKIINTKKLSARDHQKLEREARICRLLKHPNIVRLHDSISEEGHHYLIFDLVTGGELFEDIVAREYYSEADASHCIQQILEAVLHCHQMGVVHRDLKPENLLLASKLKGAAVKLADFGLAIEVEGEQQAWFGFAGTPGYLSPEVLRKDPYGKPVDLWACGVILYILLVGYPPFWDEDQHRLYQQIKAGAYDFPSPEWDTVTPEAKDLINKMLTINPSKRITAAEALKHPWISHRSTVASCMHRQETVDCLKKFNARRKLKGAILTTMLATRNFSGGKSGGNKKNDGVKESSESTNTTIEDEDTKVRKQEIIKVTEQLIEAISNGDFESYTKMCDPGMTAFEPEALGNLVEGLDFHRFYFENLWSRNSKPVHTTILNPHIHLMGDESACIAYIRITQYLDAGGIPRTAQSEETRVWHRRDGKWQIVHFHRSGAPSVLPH

| Compound | inhibition [1] | inhibition [2] | IC50 [3] |
| --- | --- | --- | --- |
| O=C(O)CCCO | 35.5% | 41.1% |  |
| O=C(O)Cc1cccc(O)c1 [3-Hydroxyphenylacetate] | 44.2% | 14% | 12 µM |
| O=C(O)Cc1cccc(Oc2ccccc2)c1 | 2.7% | -5.5% | 16.3 µM |
| O=C(O)Cc1cccc(OCc2ccccc2)c1 | 11% | -4.7% | 46 µM |
| O=C(O)CCCOc1ccccc1 | 6.3% | 6.5% | 210 µM |
| O=C(O)Cc1cccc(OCCCc2ccccc2)c1 | 17.4% | 6% | 4.5 µM |
| O=C(O)Cc1cccc(OCCc2ccccc2)c1 | 15.1% | -1.2% | 8.3 µM |
